Experimental data published in ChEMBL document CHEMBL1128975, “The effect of fluorine substitution on the antimalarial activity of tebuquine” (Bioorg Med Chem Lett, 1996).

Key:
Plasmodium falciparum [1] = assay: Antimalarial activity against Plasmodium falciparum 3D7; type: functional, organism-based
Plasmodium falciparum [2] = assay: Antimalarial activity against Plasmodium falciparum K1; type: functional, organism-based

SMILES | IC50 (Plasmodium falciparum [1]) [nM] | IC50 (Plasmodium falciparum [2]) [nM]
CC(C)(C)NCc1cc(Nc2ccnc3cc(Cl)ccc23)cc(-c2ccc(Cl)cc2)c1O [TEBUQUINE] | 18 | 21
CC(C)(C)NCc1cc(Nc2ccnc3cc(Cl)ccc23)cc(-c2ccc(Cl)cc2)c1F [FLOUROTEBUQUINE] | 58 | 74
